Results as given in US20130029981A1, “COMPOUNDS, COMPOSITIONS, AND METHODS FOR CONTROLLING BIOFILMS” (Katholieke Universiteit Leuven, priority 2009, published 2013).
Where two headings read alike, the source gives them in different places.

Legend:
[1] = test system: S. Typhimurium SL1344; test: Growth inhibition of planktonic cells in the peg assay plate (OD600); assay type: cell-based; details: Salmonella enterica, SL1344, 16° C.
[2] = test system: S. Typhimurium ATCC14028; test: as above; assay type: cell-based, Salmonella Typhimurium; details: Salmonella enterica, ATCC14028, 16° C.
[3] = test system: S. Typhimurium ATCC14028; test: Static peg assay for prevention of biofilm formation (Calgary device, crystal violet); assay type: cell-based, Salmonella Typhimurium
How it was run: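 Calgary 96-peg device, ca. 10^6 cells of ATCC14028 per well in TSB 1/20 for 24 h at 25° C (or 48 h at 16° C, medium and compound renewed at 24 h), or in CFA broth for 24 h at 37° C, static, with two-fold compound dilutions. Crystal violet stain, acetic acid extraction, OD570. IC50 from 2–3 independent experiments.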

[4] = test system: S. Typhimurium SL1344; test: as above; assay type: cell-based; details: Salmonella enterica, SL1344, 16° C., read-out: IC50 biofilm inhibition
Experimental: After an incubation period of 24 hours at 25° C. or 37° C. or 48 hours at 16° C. the biofilms were visualized by crystal violet staining. […] Biofilm formation assays were carried out at 16° C., 25° C. and 37° C. […] Subsequently, an overnight culture of S. […] The pegged lid was placed on the microtiter plate and the plate was incubated for 48 hours at 16° C. or for 24 hours at 25° C. without shaking. During this incubation period biofilms were formed on the surface of the pegs. In case of the assay at 16° C., after 24 hours the lid was transferred into a new plate with medium and the specific molecules used for testing. […] The remaining attached bacteria were stained for 30 minutes with 200 μl 0.1% (w/v) crystal violet in an isopropanol/methanol/PBS solution (v/v 1:1:18). Excess stain was rinsed off by placing the pegs in a 96-well plate filled with 200 μl distilled water per well. After the pegs were air dried (30 min), the dye bound to the adherent cells was extracted with 30% glacial acetic acid (200 μl). The OD570 of each well was measured using the VERSAmax microtiter plate reader.

[5] = test system: S. Typhimurium ATCC14028; test: Bioscreen assay: influence on planktonic growth curve; assay type: cell-based, Salmonella Typhimurium; design: key: x: no influence on the planktonic growth at the IC50 for biofilm inhibition; ∘: planktonic growth is retarded at the IC50 for biofilm inhibition; details: planktonic growth at the IC50 for biofilm inhibition, 25° C.
Source text: (§1) Some of the tested compounds show a concentration range in which biofilm formation is inhibited but no effect on planktonic growth is observed. These compounds are particularly interesting for prevention of biofilm formation since the development of resistance against these compounds is less likely. Table 8 indicates whether the different compounds have an effect on the planktonic growth of the bacteria at the IC50 for biofilm inhibition. To construct Table 8, the effect of the tested compounds on the growth curve of the bacteria was determined at a concentration equal to the IC50 for biofilm inhibition, by using the Bioscreen system available from Oy Growth Curves Ab Ltd). The Bioscreen device from Oy Growth Curves Ab Ltd was used for measuring the influence of the chemical compounds on the planktonic growth of Salmonella Typhimurium and Pseudomonas aeruginosa. The Bioscreen is a computer controlled incubator/reader/shaker that uses 10×10 well microtiter plates and measures light absorbance of each well at a specified wave length in function of time. An overnight culture of S. […] The broth used was TSB 1/20 for the experiments at 16° C. and 25° C. For experiments at 37° C. CFA medium was used for S. […] As a control 3 μl of the appropriate solvent (DMSO or EtOH) was also added to the plate in 3- or 4-fold. The microtiter plate was incubated in the Bioscreen device at 16° C., 25° C. or 37° C. for at least 36 hours, with continious medium shaking. The absorbance of each well was measured at 600 nm each 15 minutes. Excel was used to generate the growth curves for treated the treated wells and the untreated control wells. Some of the compounds show a concentration range in which biofilm formation is inhibited but no effect on the planktonic growth is observed. Table 14 indicates if the different compounds have an effect on the planktonic growth of the bacteria at the IC50 for biofilm inhibition. To construct this table the effect of the compounds on the growth curve of the bacteria was determined at a concentration equal to the IC50 for biofilm inhibtion, by using the Bioscreen system from Oy Growth Curves Ab Ltd.

[6] = test system: Salmonella Typhimurium ATCC 14028; test: Antibacterial activity: growth inhibition, OD600 after 24 h (GIC50); assay type: cell-based
Experimental: Evaluation of antibacterial-inhibitory activity of some substituted 2-amino-1H-imidazoles of the invention was carried out by diluting an overnight culture of Salmonella Typhimurium ATCC 14028 into a liquid medium. 200 μl of the diluted overnight culture was added to each well of a microtiter plate together with different concentrations of the test compound (1/2 dilution series of the compound). After an incubation of 24 hours the optical density at 600 nm of each well was determined with a microtiter plate reader.
Starting from a 40 mM stock solution of each compound in DMSO, two-fold serial dilutions in 100 μl liquid broth per well were prepared in dublicate in sterile transparant microtiter plates. The broth used was TSB 1/20 for measurements at 25° C. and CFA (in case of Salmonella Typhimurium) and LBNS (in case of Pseudomonas aeruginosa) for measurements at 37° C. Subsequently an overnight culture of the bacteria (S. Typhimurium ATCC14028 or P. aeruginosa PA14) was diluted 1/200 into the corresponding liquid broth and 100 μl was added to each well of the microtiterplate resulting in a total amout of 200 μl medium per well. After an incubation of 24 hours the optical density at 600 nm of each well was determined with a microtiter plate reader (VERSAmax, Molecular Devices).
Evaluation of antibacterial-inhibitory activity of some substituted imidazo[1,2-a]pyrimidinium bromide salts of the invention was carried out by diluting an overnight culture of Salmonella Typhimurium ATCC14028 or Pseudomonas aeruginosa PA141/200 into liquid medium. 200 μl of the diluted overnight culture was added to each well of a microtiterplate together with different concentrations of the test compound (1/2 dilution series of the compound). After an incubation of 24 hours the optical density at 600 nm of each well was determined with a microtiter plate reader.

[7] = test system: S. Typhimurium ATCC14028; test: Bioscreen assay: influence on planktonic growth curve; assay type: cell-based, Salmonella Typhimurium; details: 40 μM; for Effect on growth at: 40 μM (S. Typhimurium): planktonic growth, 25° C.
Source text: as §1

[8] = test system: Pseudomonas aeruginosa PA14; test: Static peg assay for prevention of biofilm formation (Calgary device, crystal violet); assay type: cell-based
How it was run: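 P. aeruginosa PA14 overnight TSB culture diluted 1:100 into broth with two-fold compound dilutions, biofilms grown 24 h static on polystyrene pegs of a Calgary device at 25 °C (TSB 1/20), 30 °C or 37 °C (CFA and/or LBNS). Biofilm quantified by crystal violet, extracted with 30% acetic acid, A570.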

[9] = Salmonella enterica, ATCC14028, 16° C., read-out: IC50 biofilm inhibition
[10] = S. Typhimurium ATCC 14028, 25° C., read-out: S. Typhimurium IC50 (biofilm formation)
[11] = P. aeruginosa PA14, 25° C., read-out: P. aeruginosa IC50 (biofilm formation)
[12] = S. Typhimurium ATCC 14028, 25° C., read-out: IC50 for biofilm inhibition (25° C.)
[13] = OD600 after 24 hours of growth, read-out: GIC(50)

Structure (SMILES): Fc1ccccc1Sc1ccccc1CNC1=NCCN1 [Specs3-3]
- IC50 [1]: 265 µM
- IC50 [2]: 265 µM
- IC50 [3, 9]: 32.9 µM
- IC50 [4]: 68.1 µM

Structure (SMILES): OC1(c2ccc(Br)cc2)C[n+]2cccnc2N1C1CC1.[Br-] (stereo not drawn) [R1=Cyclopropyl, R3=4-Br—Ph, R4=H, 1-cyclopropyl-2-hydroxy-2-(4-bromophenyl)-2,3-dihydro-1H-imidazo[1,2-a]-pyrimidin-4-ium bromide]
- IC50 ([3]; Salmonella enterica, 25° C., Table 11, read-out: IC50 (biofilm formation)): 27 µM
- IC50 ([3]; Salmonella enterica, 25° C., Table 14, read-out: IC50 biofilm inhibition): 27 µM
- Influence on growth [5]: x
- IC50 ([6]; Salmonella enterica, 25° C.): 25 to 50 µM

Structure (SMILES): Nc1nc(-c2ccc([N+](=O)[O-])cc2)c[nH]1 [Compound 90]
- IC50 [3, 10]: 17.6 µM
- Effect on growth at: 40 μM (S. Typhimurium) [7]: ∘
- IC50 [8, 11]: 34.5 µM

Structure (SMILES): CCCCCNc1ncc(-c2ccc(Cl)c(Cl)c2)[nH]1 [Compound 110]
- IC50 [3, 10]: 2.2 µM
- Effect on growth at: 40 μM (S. Typhimurium) [7]: ∘
- IC50 [8, 11]: 0.7 µM

Structure (SMILES): COc1cccc(CCN2c3nccc[n+]3CC2(O)c2ccc(Cl)c(Cl)c2)c1.[Br-] (stereo not drawn) [Compound 77]
- IC50 ([3]; 25° C., Table 11, read-out: IC50 (biofilm formation)): 7.39 µM
- IC50 ([3]; 25° C., Table 14, read-out: IC50 biofilm inhibition): 7.39 µM
- IC50 ([3]; 25° C., Table 19, read-out: IC50 (biofilm formation)): 7.23 µM
- Effect on growth at 40 μM [7]: ∘
- Influence on growth [5]: x

Structure (SMILES): Clc1ccc(-c2cnc(NCc3ccccc3)[nH]2)cc1 [Compound 127]
- IC50 ([3]; 25° C., Table 22, read-out: S. Typhimurium IC50 (biofilm formation)): 30.7 µM
- IC50 [3, 12]: 31 µM
- IC50 ([8]; 25° C., Table 22, read-out: P. aeruginosa IC50 (biofilm formation)): 26.3 µM
- IC50 [6, 13]: 100 µM

Structure (SMILES): Clc1ccc(-c2c[nH]c(NC3CCCC3)n2)cc1Cl
- IC50 [3, 12]: 6 µM
- IC50 ([8]; P. aeruginosa PA14, 25° C., read-out: IC50 for biofilm inhibition (25° C.)): 1 µM
- IC50 [6, 13]: 50 µM

Structure (SMILES): c1ccc(Sc2cccc3ccccc23)c(CNC2=NCCN2)c1 [Specs3-4]
- IC50 [1]: 82.6 µM
- IC50 [2]: 82.6 µM
- IC50 [3, 9]: 16.6 µM
- IC50 [4]: 15.5 µM
